Molecular target: T1, IRAK4 (Homo sapiens, UniProt Q9NWZ3)
T1 construct: 293Tcells expressing HiBiT-tagged IRAK4 were then added into 384-well plates
T1 sequence (Q9NWZ3 1-460): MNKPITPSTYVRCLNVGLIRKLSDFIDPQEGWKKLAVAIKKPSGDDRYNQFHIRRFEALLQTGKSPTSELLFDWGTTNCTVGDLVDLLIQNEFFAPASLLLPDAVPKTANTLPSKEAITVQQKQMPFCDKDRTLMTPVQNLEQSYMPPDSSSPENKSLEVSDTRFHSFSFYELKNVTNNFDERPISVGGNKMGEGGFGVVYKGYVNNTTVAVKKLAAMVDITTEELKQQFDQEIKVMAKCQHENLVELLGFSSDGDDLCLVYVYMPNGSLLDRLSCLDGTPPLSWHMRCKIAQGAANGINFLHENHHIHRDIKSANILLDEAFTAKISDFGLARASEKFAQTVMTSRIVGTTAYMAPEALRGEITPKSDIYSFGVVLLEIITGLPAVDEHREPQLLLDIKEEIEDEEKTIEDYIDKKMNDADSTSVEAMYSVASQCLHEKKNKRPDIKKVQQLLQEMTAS
Test: IRAK4 Degradation Assay, HiBiT Method
Assay type: cell-based
Settings: 293T cells expressing HiBiT-tagged IRAK4, 6 hours
Summary of the method: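 Luminescent read-out with Nano-Glo HiBiT lytic reagent after 6 h compound exposure at 37 °C. Cells were HiBiT-IRAK4 knock-in 293T (C-terminal tag), 10,000 per well. Compounds ran as 11-point half-log dilutions from […] highest dose, duplicate wells; DMSO served as negative control.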

| Compound | DC50 |
| --- | --- |
| CO[C@H]1CN(C[C@H]2CC[C@H](n3cc4cc(C(=O)Nc5cccn(C6CC6)c5=O)c(OC(C)C)cc4n3)CC2)CC[C@H]1c1ccc2c(N3CCC(=O)NC3=O)nn(C)c2c1 [Example 140, N-(1-cyclopropyl-2-oxo-1,2-dihydropyridin-3-yl)-2-((1R,4r)-4-(((3R,4S)-4-(3-(2,4-dioxotetrahydropyrimidin-1(2H)-yl)-1-methyl-1H-indazol-6-yl)-3-methoxypiperidin-1-yl)methyl)cyclohexyl)-6-isopropoxy-2H-indazole-5-carboxamide] | < 10 nM |
| CC(C)Oc1cc2nn([C@H]3CC[C@H](CN4CCC(c5ccc(OC6CCC(=O)NC6=O)cc5)CC4)CC3)cc2cc1C(=O)Nc1cccn([C@H]2C[C@H]2F)c1=O (stereo partly drawn) [Example 141, 2-((1r,4S)-4-((4-(4-((2,6-dioxopiperidin-3-yl)oxy)phenyl)piperidin-1-yl)methyl)cyclohexyl)-N-(1-((1S,2R)-2-fluorocyclopropyl)-2-oxo-1,2-dihydropyridin-3-yl)-6-isopropoxy-2H-indazole-5-carboxamide] | < 10 nM |
| CC(C)Oc1cc2nn([C@H]3CC[C@H](CN4CCC(c5ccc6c(N7CCC(=O)NC7=O)nn(C)c6c5)CC4)CC3)cc2cc1C(=O)Nc1cccn([C@H]2C[C@H]2F)c1=O [Example 144, 2-((1r,4S)-4-((4-(3-(2,4-dioxotetrahydropyrimidin-1(2H)-yl)-1-methyl-1H-indazol-6-yl)piperidin-1-yl)methyl)cyclohexyl)-N-(1-((1S,2R)-2-fluorocyclopropyl)-2-oxo-1,2-dihydropyridin-3-yl)-6-isopropoxy-2H-indazole-5-carboxamide] | < 10 nM |
| CC(C)Oc1cc2nn([C@H]3CC[C@H](CN4CCN(c5ccc6c(N7CCC(=O)NC7=O)cnn6c5)CC4)CC3)cc2cc1C(=O)Nc1cccn([C@H]2C[C@H]2F)c1=O [Example 145, 2-((1r,4S)-4-((4-(3-(2,4-dioxotetrahydropyrimidin-1(2H)-yl)pyrazolo[1,5-a]pyridin-6-yl)piperazin-1-yl)methyl)cyclohexyl)-N-(1-((1S,2R)-2-fluorocyclopropyl)-2-oxo-1,2-dihydropyridin-3-yl)-6-isopropoxy-2H-indazole-5-carboxamide] | < 10 nM |
| CC(C)Oc1cc2nn([C@H]3CC[C@H](CN4CCN(c5ccn6c(N7CCC(=O)NC7=O)cnc6c5)CC4)CC3)cc2cc1C(=O)Nc1cccn([C@H]2C[C@H]2F)c1=O [Example 146, 2-((1r,4S)-4-((4-(3-(2,4-dioxotetrahydropyrimidin-1(2H)-yl)imidazo[1,2-a]pyridin-7-yl)piperazin-1-yl)methyl)cyclohexyl)-N-(1-((1S,2R)-2-fluorocyclopropyl)-2-oxo-1,2-dihydropyridin-3-yl)-6-isopropoxy-2H-indazole-5-carboxamide] | < 10 nM |
| CC(C)Oc1cc2nn(C3CCN(C(=O)CC4CCN(c5ncc(C6CCC(=O)NC6=O)cc5F)CC4)CC3)cc2cc1C(=O)Nc1cnn2cccnc12 (centres unmarked) [Example 148, 2-(1-(2-(1-(5-(2,6-dioxopiperidin-3-yl)-3-fluoropyridin-2-yl)piperidin-4-yl)acetyl)piperidin-4-yl)-6-isopropoxy-N-(pyrazolo[1,5-a]pyrimidin-3-yl)-2H-indazole-5-carboxamide] | 10 to 100 nM |
| CC(C)Oc1cc2nn(C3CCN(C(=O)CC4CCN(c5ccc(C6CCC(=O)NC6=O)cn5)CC4)CC3)cc2cc1C(=O)Nc1cccn([C@H]2C[C@H]2F)c1=O (stereo partly drawn) [Example 149, 2-(1-(2-(1-(5-(2,6-dioxopiperidin-3-yl)pyridin-2-yl)piperidin-4-yl)acetyl)piperidin-4-yl)-N-(1-((1S,2R)-2-fluorocyclopropyl)-2-oxo-1,2-dihydropyridin-3-yl)-6-isopropoxy-2H-indazole-5-carboxamide] | < 10 nM |
| CC(C)Oc1cc2nn(C3CCN(C(=O)CC4CCN(c5ncc6c(n5)n(C)c(=O)n6C5CCC(=O)NC5=O)CC4)CC3)cc2cc1C(=O)Nc1cccn([C@H]2C[C@H]2F)c1=O (stereo partly drawn) [Example 150, 2-(1-(2-(1-(7-(2,6-dioxopiperidin-3-yl)-9-methyl-8-oxo-8,9-dihydro-7H-purin-2-yl)piperidin-4-yl)acetyl)piperidin-4-yl)-N-(1-((1S,2R)-2-fluorocyclopropyl)-2-oxo-1,2-dihydropyridin-3-yl)-6-isopropoxy-2H-indazole-5-carboxamide] | < 10 nM |
| CC(C)Oc1cc2nn(C3CCN(C(=O)CC4CCN(c5ncc(C6CCC(=O)NC6=O)cc5F)CC4)CC3)cc2cc1C(=O)Nc1cccn([C@H]2C[C@H]2F)c1=O (stereo partly drawn) [Example 151, 2-(1-(2-(1-(5-(2,6-dioxopiperidin-3-yl)-3-fluoropyridin-2-yl)piperidin-4-yl)acetyl)piperidin-4-yl)-N-(1-((1S,2R)-2-fluorocyclopropyl)-2-oxo-1,2-dihydropyridin-3-yl)-6-isopropoxy-2H-indazole-5-carboxamide] | < 10 nM |
| CC(C)Oc1cc2nn(C3CCN(C(=O)CC4(O)CCN(c5ncc(C6CCC(=O)NC6=O)cc5F)CC4)CC3)cc2cc1C(=O)Nc1cccn([C@H]2C[C@H]2F)c1=O (stereo partly drawn) [Example 152, 2-(1-(2-(1-(5-(2,6-dioxopiperidin-3-yl)-3-fluoropyridin-2-yl)-4-hydroxypiperidin-4-yl)acetyl)piperidin-4-yl)-N-(1-((S,2R)-2-fluorocyclopropyl)-2-oxo-1,2-dihydropyridin-3-yl)-6-isopropoxy-2H-indazole-5-carboxamide] | < 10 nM |
| CC(C)Oc1cc2nn(C3CCN(C(=O)NC4CCN(c5ncc(C6CCC(=O)NC6=O)cc5F)CC4)CC3)cc2cc1C(=O)Nc1cccn([C@H]2C[C@H]2F)c1=O (stereo partly drawn) [Example 154, 2-(1-((1-(5-(2,6-dioxopiperidin-3-yl)-3-fluoropyridin-2-yl)piperidin-4-yl)carbamoyl)piperidin-4-yl)-N-(1-((1S,2R)-2-fluorocyclopropyl)-2-oxo-1,2-dihydropyridin-3-yl)-6-isopropoxy-2H-indazole-5-carboxamide] | < 10 nM |
| CC(C)Oc1cc2nn(C3CCN(C(=O)N(C)C4CCN(c5ncc(C6CCC(=O)NC6=O)cc5F)CC4)CC3)cc2cc1C(=O)Nc1cccn([C@H]2C[C@H]2F)c1=O (stereo partly drawn) [Example 155, 2-(1-((1-(5-(2,6-dioxopiperidin-3-yl)-3-fluoropyridin-2-yl)piperidin-4-yl)(methyl)carbamoyl)piperidin-4-yl)-N-(1-((1S,2R)-2-fluorocyclopropyl)-2-oxo-1,2-dihydropyridin-3-yl)-6-isopropoxy-2H-indazole-5-carboxamide] | 10 to 100 nM |
| CC(C)Oc1cc2nn(C3CCN(C(=O)OC4CCN(c5ncc(C6CCC(=O)NC6=O)cc5F)CC4)CC3)cc2cc1C(=O)Nc1cccn([C@H]2C[C@H]2F)c1=O (stereo partly drawn) [Example 156, 1-(5-(2,6-dioxopiperidin-3-yl)-3-fluoropyridin-2-yl)piperidin-4-yl 4-(5-((1-((1S,2R)-2-fluorocyclopropyl)-2-oxo-1,2-dihydropyridin-3-yl)carbamoyl)-6-isopropoxy-2H-indazol-2-yl)piperidine-1-carboxylate] | 10 to 100 nM |
| CC(C)Oc1cc2nc(C3CCN(C(=O)NC4CCN(c5ccc(C6CCC(=O)NC6=O)cn5)CC4)CC3)cn2cc1C(=O)Nc1cnn2cccnc12 (centres unmarked) [Example 157, 2-[1-[[1-[5-(2,6-dioxo-3-piperidyl)-2-pyridyl]-4-piperidyl]carbamoyl]-4-piperidyl]-7-isopropoxy-N-pyrazolo[1,5-a]pyrimidin-3-yl-imidazo[1,2-a]pyridine-6-carboxamide] | < 10 nM |
